Measured values taken from US7517884B2 (Kalypsys Inc., priority 1998, dated 2009).

Columns and labels:
Assay type in all cases: cell-based, murine and human
Settings in all cases: GAL4-PPAR LBD chimera
PPAR-alpha = molecular target: T1, PPAR-alpha (UniProt Q07869); assay: PPAR-alpha transactivation assay (GAL4 chimera, luciferase reporter) in CV-1 cells
T1 sequence (Q07869 1-468): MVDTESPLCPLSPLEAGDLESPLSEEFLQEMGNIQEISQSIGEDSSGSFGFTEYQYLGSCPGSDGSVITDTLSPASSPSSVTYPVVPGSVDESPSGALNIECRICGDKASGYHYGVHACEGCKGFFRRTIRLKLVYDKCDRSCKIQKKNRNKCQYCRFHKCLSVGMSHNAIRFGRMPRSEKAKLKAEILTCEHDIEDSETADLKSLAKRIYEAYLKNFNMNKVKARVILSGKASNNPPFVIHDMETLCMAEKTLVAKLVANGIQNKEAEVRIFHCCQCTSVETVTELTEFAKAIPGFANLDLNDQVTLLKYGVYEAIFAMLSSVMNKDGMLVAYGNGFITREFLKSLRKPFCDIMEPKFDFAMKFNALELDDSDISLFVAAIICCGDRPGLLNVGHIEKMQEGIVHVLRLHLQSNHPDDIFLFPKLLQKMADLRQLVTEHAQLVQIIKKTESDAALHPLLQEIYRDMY
Outline: (§1)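 CV-1 cells transiently transfected with murine or human PPAR-alpha, -gamma or -delta ligand-binding domain fused to GAL4 DNA-binding domain plus a GAL4-site luciferase reporter. After replating in phenol-red-free DME with 5% delipidated calf serum, cells were exposed to compound 20-24 h; luciferase read-out gave EC50.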

PPAR-delta = molecular target: T2, PPAR-delta (UniProt Q03181); assay: PPAR-delta transactivation assay (GAL4 chimera, luciferase reporter) in CV-1 cells
T2 sequence (Q03181 1-441): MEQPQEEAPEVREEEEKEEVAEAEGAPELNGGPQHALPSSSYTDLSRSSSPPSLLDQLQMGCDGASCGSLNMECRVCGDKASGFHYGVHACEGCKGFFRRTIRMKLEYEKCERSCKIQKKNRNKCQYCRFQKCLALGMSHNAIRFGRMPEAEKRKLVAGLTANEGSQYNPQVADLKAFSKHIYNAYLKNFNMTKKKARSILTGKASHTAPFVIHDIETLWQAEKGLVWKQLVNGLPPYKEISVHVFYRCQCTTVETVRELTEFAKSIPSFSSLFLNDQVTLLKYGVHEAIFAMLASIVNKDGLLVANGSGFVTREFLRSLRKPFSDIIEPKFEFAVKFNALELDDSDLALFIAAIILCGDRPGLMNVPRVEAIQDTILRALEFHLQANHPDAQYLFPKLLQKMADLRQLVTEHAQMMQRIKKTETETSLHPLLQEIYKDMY
Outline: as §1

PPAR-gamma = molecular target: T3, PPAR-gamma (UniProt P37231); assay: PPAR-gamma transactivation assay (GAL4 chimera, luciferase reporter) in CV-1 cells
T3 sequence (P37231 1-505): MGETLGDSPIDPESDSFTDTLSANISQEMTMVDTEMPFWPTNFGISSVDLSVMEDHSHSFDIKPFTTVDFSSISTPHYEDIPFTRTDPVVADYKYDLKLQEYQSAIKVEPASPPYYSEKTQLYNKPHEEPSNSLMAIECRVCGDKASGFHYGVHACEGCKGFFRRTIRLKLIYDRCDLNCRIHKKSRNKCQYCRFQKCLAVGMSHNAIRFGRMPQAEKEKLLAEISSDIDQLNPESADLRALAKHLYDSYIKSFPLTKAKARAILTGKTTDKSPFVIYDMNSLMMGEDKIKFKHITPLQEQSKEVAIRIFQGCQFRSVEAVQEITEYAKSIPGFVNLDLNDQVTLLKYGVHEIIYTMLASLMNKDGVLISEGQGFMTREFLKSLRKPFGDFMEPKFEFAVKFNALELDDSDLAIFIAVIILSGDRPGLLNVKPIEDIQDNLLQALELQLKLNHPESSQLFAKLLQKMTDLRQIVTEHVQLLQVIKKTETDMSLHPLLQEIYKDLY
Outline: as §1

CCC1CN(c2ccc(C(F)(F)F)cc2F)CCN1S(=O)(=O)c1ccc2c(c1)C(C(=O)O)CC2 (stereo not drawn) [Example 60, 6-[2-Ethyl-4-(2-fluoro-4-trifluoromethyl-phenyl)-piperazine-1-sulfonyl]-indan-1-carboxylic acid]
EC50 (PPAR-alpha): < 5 µM | EC50 (PPAR-delta): < 5 µM | EC50 (PPAR-gamma): 5 to 100 µM

C[C@H]1CN(c2ccc(Cl)c(Cl)c2)CCN1S(=O)(=O)c1ccc2c(c1)C(C(=O)O)CC2 (stereo partly drawn) [Example 61, 6-[4-(3,4-Dichloro-phenyl)-(S)-methyl-piperazine-1-sulfonyl]-indan-1-carboxylic acid]
EC50 (PPAR-alpha): < 5 µM | EC50 (PPAR-delta): < 5 µM | EC50 (PPAR-gamma): < 5 µM

C[C@H]1CN(c2ccc(OC(F)(F)F)cc2)CCN1S(=O)(=O)c1ccc2c(c1)C(C(=O)O)CC2 (stereo partly drawn) [Example 62, 6-[2-(S)-Methyl-4-(4-trifluoromethoxy-phenyl)-piperazine-1-sulfonyl]-indan-1-carboxylic acid]
EC50 (PPAR-alpha): < 5 µM | EC50 (PPAR-delta): < 5 µM | EC50 (PPAR-gamma): 5 to 100 µM

C[C@H]1CN(c2ccc(C(F)(F)F)c(F)c2)CCN1S(=O)(=O)c1ccc2c(c1)C(C(=O)O)CC2 (stereo partly drawn) [Example 63, 6-[4-(3-Fluoro-4-trifluoromethyl-phenyl)-2-(S)-methyl-piperazine-1-sulfonyl]-indan-1-carboxylic acid]
EC50 (PPAR-alpha): < 5 µM | EC50 (PPAR-delta): < 5 µM | EC50 (PPAR-gamma): < 5 µM

CCC1CN(S(=O)(=O)c2ccc3c(c2)C(C(=O)O)CC3)CCN1c1ccc(C(F)(F)F)cn1 (stereo not drawn) [Example 64, 6-[3-Ethyl-4-(5-trifluoromethyl-pyrdin-2-yl)-piperazine-1-sulfonyl]-indan-1-carboxylic acid]
EC50 (PPAR-alpha): < 5 µM | EC50 (PPAR-delta): < 5 µM | EC50 (PPAR-gamma): < 5 µM

C[C@@H]1CN(S(=O)(=O)c2ccc3c(c2)C(C(=O)O)CC3)C[C@H](C)N1c1ccc(C(F)(F)F)cn1 (stereo partly drawn) [Example 65, 6-[cis-3,5-dimethyl-4-(5-trifluoromethyl-pyrdin-2-yl)-piperazine-1-sulfonyl]-indan-1-carboxylic acid]
EC50 (PPAR-alpha): < 5 µM | EC50 (PPAR-delta): < 5 µM | EC50 (PPAR-gamma): < 5 µM

O=C(O)C1CCc2ccc(S(=O)(=O)N3CC=C(c4ccc(C(F)(F)F)cn4)CC3)cc21 (stereo not drawn) [Example 66, 6-(5-Trifluoromethyl-3,6-dihydro-2H-|2,4|bipyridinyl-1-sulfonyl)-indan-1-carboxylic acid]
EC50 (PPAR-alpha): < 5 µM | EC50 (PPAR-delta): < 5 µM | EC50 (PPAR-gamma): 5 to 100 µM

O=C(O)C1CCc2ccc(S(=O)(=O)N3CCCN(c4ccc(C(F)(F)F)cn4)CC3)cc21 (stereo not drawn) [Example 67, 6-[4-(5-trifluoromethyl-pyridin-2-yl)-[1,4]diazepane-1-sulfonyl]-indan-1-carboxylic acid]
EC50 (PPAR-alpha): < 5 µM | EC50 (PPAR-delta): < 5 µM | EC50 (PPAR-gamma): < 5 µM

C[C@H]1CN(c2ccc(C(F)(F)F)cn2)C[C@H](C)N1S(=O)(=O)c1ccc2c(c1)C(C(=O)O)CC2 (stereo partly drawn) [Example 68, 6-[trans-2,6-(S,S)-dimethyl-4-(5-trifluoromethyl-pyrdin-2-yl)-piperazine-1-sulfonyl]-indan-1-carboxylic acid]
EC50 (PPAR-alpha): < 5 µM | EC50 (PPAR-delta): < 5 µM | EC50 (PPAR-gamma): < 5 µM

C[C@H]1CN(S(=O)(=O)c2ccc3c(c2)C(C(=O)O)CC3)C[C@H](C)N1c1ccc(C(F)(F)F)cn1 (stereo partly drawn) [Example 69, 6-[trans-3,5-(S,S)-dimethyl-4-(5-trifluoromethyl-pyrdin-2-yl)-piperazine-1-sulfonyl]-indan-1-carboxylic acid]
EC50 (PPAR-alpha): < 5 µM | EC50 (PPAR-delta): < 5 µM | EC50 (PPAR-gamma): < 5 µM

C[C@@H]1CN(c2ccc(C(F)(F)F)c(F)c2)C[C@H](C)N1S(=O)(=O)c1ccc2c(c1)C(C(=O)O)CC2 (stereo partly drawn) [Example 70, 6-[cis-2,6-dimethyl-4-(3-fluoro-4-trifluoromethyl-phenyl)-piperazine-1-sulfonyl]-indan-1-carboxylic acid]
EC50 (PPAR-alpha): < 5 µM | EC50 (PPAR-delta): < 5 µM | EC50 (PPAR-gamma): 5 to 100 µM

O=C(O)C1CCc2ccc(S(=O)(=O)N3CCN(c4ccc(OC(F)(F)F)cc4)CC3)cc21 (stereo not drawn) [Example 71, 6-[4-(4-trifluoromethoxy-phenyl)-piperazine-1-sulfonyl]-indan-1-carboxylic acid]
EC50 (PPAR-alpha): < 5 µM | EC50 (PPAR-delta): < 5 µM | EC50 (PPAR-gamma): < 5 µM

CCC1CN(c2ccc(C(F)(F)F)cn2)CCN1S(=O)(=O)c1ccc2c(c1)C(C(=O)O)CC2 (stereo not drawn) [Example 72, 6-[2-ethyl-4-(5-trifluoromethyl-pyridin-2-yl)-piperazine-1-sulfonyl]-indan-1-carboxylic acid]
EC50 (PPAR-alpha): < 5 µM | EC50 (PPAR-delta): < 5 µM | EC50 (PPAR-gamma): < 5 µM

CC1(C)CN(S(=O)(=O)c2ccc3c(c2)C(C(=O)O)CC3)CCN1c1ccc(C(F)(F)F)cn1 (stereo not drawn) [Example 73, 6-[3,3-dimethyl-4-(5-trifluoromethyl-pyridin-2-yl)-piperazine-1-sulfonyl]-indan-1-carboxylic acid]
EC50 (PPAR-alpha): 5 to 100 µM | EC50 (PPAR-delta): < 5 µM | EC50 (PPAR-gamma): < 5 µM

O=C(O)C1CCc2ccc(S(=O)(=O)N3CCN(c4ccc(C(F)(F)F)c(Cl)c4)CC3)cc21 (stereo not drawn) [Example 74, 6-[4-(3-chloro-4-trifluoromethyl-phenyl)-piperazine-1-sulfonyl]-indan-1-carboxylic acid]
EC50 (PPAR-alpha): < 5 µM | EC50 (PPAR-delta): < 5 µM | EC50 (PPAR-gamma): < 5 µM

C[C@@H]1CN(c2ccc(C(F)(F)F)cn2)C[C@H](C)N1S(=O)(=O)c1cccc2c1CC(C(=O)O)C2 (stereo partly drawn) [Example 77, 4-[cis-2,6-dimethyl-4-(5-trifluoromethyl-pyridin-2-yl)-piperazine-1-sulfonyl]-indan-2-carboxylic acid]
EC50 (PPAR-alpha): > 100 µM | EC50 (PPAR-delta): < 5 µM | EC50 (PPAR-gamma): > 100 µM

O=C(O)C1CCc2ccc(S(=O)(=O)N3C4CCC3CN(c3ccc(C(F)(F)F)cn3)C4)cc21 (stereo not drawn) [Example 78]
EC50 (PPAR-alpha): 5 to 100 µM | EC50 (PPAR-delta): < 5 µM | EC50 (PPAR-gamma): 5 to 100 µM

C[C@@H]1CN(c2ccc(OC(F)(F)F)cc2)C[C@H](C)N1S(=O)(=O)c1cccc2c1CC(C(=O)O)C2 (stereo partly drawn) [Example 79, 4-[cis-2,6-dimethyl-4-(4-trifluoromethoxy-phenyl)-piperazine-1-sulfonyl]-indan-2-carboxylic acid]
EC50 (PPAR-alpha): > 100 µM | EC50 (PPAR-delta): < 5 µM | EC50 (PPAR-gamma): > 100 µM

C[C@@H]1CN(c2ccc(C(F)(F)F)c(F)c2)C[C@H](C)N1S(=O)(=O)c1cccc2c1CC(C(=O)O)C2 (stereo partly drawn) [Example 83, 4-[4-(3-fluoro-4-trifluoromethyl-phenyl)-cis-2,6-dimethyl-piperazine-1-sulfonyl]-indan-2-carboxylic acid]
EC50 (PPAR-alpha): 5 to 100 µM | EC50 (PPAR-delta): < 5 µM | EC50 (PPAR-gamma): 5 to 100 µM

C[C@@H]1CN(c2ccc(OC(F)(F)F)cc2)C[C@H](C)N1S(=O)(=O)c1ccc2c(c1)CC(C(=O)O)C2 (stereo partly drawn) [Example 84, 5-[2,6-cis-dimethyl-4-(4-trifluoromethoxy-phenyl)-piperazine-1-sulfonyl]-indan-2-carboxylic acid]
EC50 (PPAR-alpha): > 100 µM | EC50 (PPAR-delta): 5 to 100 µM | EC50 (PPAR-gamma): 5 to 100 µM

Cc1cc(N2C[C@@H](C)N(S(=O)(=O)c3ccc4c(c3)C(C(=O)O)CC4)[C@@H](C)C2)ccc1OC(F)F (stereo partly drawn) [Example 85, 6-[4-(4-difluoromethoxy-3-methyl-phenyl)-2,6-dimethyl-piperazine-1-sulfonyl]-indan-1-carboxylic acid]
EC50 (PPAR-alpha): 5 to 100 µM | EC50 (PPAR-delta): < 5 µM | EC50 (PPAR-gamma): 5 to 100 µM

C[C@@H]1CN(c2ccc(OC(F)(F)F)cc2)C[C@H](C)N1S(=O)(=O)c1ccc2ccn(CC(=O)O)c2c1 [Example 88, {6-[cis-2,6-Dimethyl-4-(4-trifluoromethoxy-phenyl)-piperazine-1-sulfonyl]-indol-1-yl}-acetic acid]
EC50 (PPAR-alpha): > 100 µM | EC50 (PPAR-delta): < 5 µM | EC50 (PPAR-gamma): 5 to 100 µM

O=C(O)C1Cc2cccc(S(=O)(=O)N3CCN(c4ccc(OC(F)(F)F)cn4)CC3)c2C1 (stereo not drawn) [Example 89, 4-[4-(5-Trifluoromethoxy-pyridin-2-yl)-piperazine-1-sulfonyl]-indan-2-carboxylic acid]
EC50 (PPAR-alpha): < 5 µM | EC50 (PPAR-delta): < 5 µM | EC50 (PPAR-gamma): < 5 µM
